According to patent publication US20170339949A1, “SUGAR SURFACTANTS AND USE THEREOF IN AGROCHEMICAL COMPOSITIONS” (Clariant International Ltd., priority 2014, published 2017):

Key:
[1] = Dynamic surface tension (Krüss PocketDyne BP2100); format: physicochemical; details: for Surface tension: 24.6° C.
Description: In the case of plants that are difficult to wet, such as the cereal plants wheat, barley, triticale, rye and oats, in the case of further large-scale crops corn, rice, soya and oilseed rape, and also in the case of almost all weed grasses and numerous dicotyledonous weeds that are difficult to control, such as Chenopodium album or Euphorbium heterophyllum, the promotion of the adsorption of the spray liquid on the green parts of the plant is of crucial significance. This wetting agent effect was therefore also determined for the glucamides.
For a given application technique or parameters (nozzle, pressure, water application rate, distance from the plant surface), the value for the dynamic surface tension in [mN/m] correlates well with the adhesion on plants that are difficult to wet such as barley (or cereals in general) and weed grasses. A value of 50 mN/m (at 20-21° C.) with respect to water (72.8 mN/m) results in an improvement in the adhesion from “zero adhesion” to about 50% (Baur P, Pontzen R 2007. Basic features of plant surface wettability and deposit formation and the impact of adjuvants. In: R E Gaskin ed. Proceeding of the 8th International Symposium on Adjuvants for Agrochemicals. Publisher: International Society for Agrochemical Adjuvants (ISAA), Columbus, Ohio, USA). A value below 60 mN/m at 200 ms gives visibly better adsorption of aqueous spray liquids; in the case of standard flat jet nozzles, optimal wetting is achieved.
The values for dynamic surface tension (Krüss PocketDyne BP2100, T 24.6° C.) are shown below at for the linear C810 glucamide and the decene glucamide and a pelargonamide.

[2] = test system: apple leaf cuticles; test: Membrane penetration test with apple leaf cuticles for mesotrione; format: in vitro ADME; details: summary in words of Table 1
Description: Increasing the absorption of systemic active ingredients using the example of mesotrione and test system for measurement of the promotion of penetration of active ingredients
Surfactants can promote the absorption of (active) ingredients through membranes such as skin, films or the plant cuticle. As a “finite-dose” application, it is known for the single administration or application of a solution, cream, gel etc. to a membrane that the absorption of active ingredient can be influenced by some additives such as surfactants even after wetting. This effect is independent of the interfacial effect in water, is often highly concentration-dependent and takes place for the most part after evaporation of water and any solvents present rather than as a result of the interaction, for example, with active ingredient, membrane and environmental factors. […]
The potential of the test substances, which is independent of the surfactant action, to promote foliar absorption of active agrochemical ingredients was determined in membrane penetration tests with apple leaf cuticles for mesotrione. […] At regular intervals, aliquot samples were taken and the proportion of active ingredient penetrated was determined by HPLC. During the experiment, the temperature in the system (block, diffusion cells, liquids, etc.) and the air humidity above the spray coating on the cuticle were known exactly and were monitored. […]

[3] = weak organic acid; cited from earlier work

Row | Surface tension ([1]; conc. 0.6 g/L, 20 ms) [mN/m] | Surface tension ([1]; conc. 0.6 g/L, 50 ms) [mN/m] | Surface tension ([1]; conc. 0.6 g/L, 100 ms) [mN/m] | Surface tension ([1]; conc. 0.6 g/L, 200 ms) [mN/m] | Surface tension ([1]; conc. 1.25 g/L, 20 ms) [mN/m] | Surface tension ([1]; conc. 1.25 g/L, 50 ms) [mN/m] | Surface tension ([1]; conc. 1.25 g/L, 100 ms) [mN/m] | Surface tension ([1]; conc. 1.25 g/L, 200 ms) [mN/m] | Surface tension ([1]; conc. 2.5 g/L, 20 ms) [mN/m] | Surface tension ([1]; conc. 2.5 g/L, 50 ms) [mN/m] | Surface tension ([1]; conc. 2.5 g/L, 100 ms) [mN/m] | Surface tension ([1]; conc. 2.5 g/L, 200 ms) [mN/m] | Surface tension ([1]; conc. 5 g/L, 20 ms) [mN/m] | Surface tension ([1]; conc. 5 g/L, 50 ms) [mN/m] | Surface tension ([1]; conc. 5 g/L, 100 ms) [mN/m] | Surface tension ([1]; conc. 5 g/L, 200 ms) [mN/m] | Suitability as wetting agent compared to Synergen GA (C810) ([1]; summary in words of dynamic surface tension results) | Structure (SMILES) | Promotion of penetration of mesotrione compared to the linear mixture of C8 and C10 glucamide [2] | pKa [3]
1 | 70.2 | 68.8 | 67.7 | 67.1 | 66.0 | 63.7 | 62.6 | 61.1 | 59.1 | 56.3 | 55.3 | 53.8 | 47.7 | 45.6 | 45.2 | 44.3 | – | CCCCCCCCC(=O)N(C)C[C@H](O)[C@@H](O)[C@H](O)[C@H](O)CO [N-Methyl-N-nonanoylglucamine, N-methyl-N-nonanoylglucamine] | likewise falls short | –
2 | – | – | – | – | – | – | – | – | – | – | – | – | – | – | – | – | – | CS(=O)(=O)c1ccc(C(=O)C2C(=O)CCCC2=O)c([N+](=O)[O-])c1 [Mesotrione, mesotrione] | – | 3.1
3 | 70.2 | 68.9 | 67.6 | 67.4 | 66.4 | 63.7 | 61.8 | 61.0 | 59.7 | 56.6 | 55.5 | 54.1 | 50.5 | 48.3 | 47.7 | 46.6 | wetting agent of comparable suitability | C=CCCCCCCCC(=O)N(C)C[C@H](O)[C@@H](O)[C@H](O)[C@H](O)CO [N-Methyl-N-dec-9-enoylglucamine, N-methyl-N-dec-9-enoylglucamine] | higher promotion of penetration of mesotrione | –
